Our source for the MIC values is DBAASP.

Holding throughout (experiment): ≥ marks a high value that may be exact or a test limit, other limits are often not marked, values filed in µg/mL are converted to µM
Assay [1] has as its system Escherichia coli ML-35p.
Assay [2] relates to Staphylococcus aureus ATCC 43300.
Assay [3] concerns Staphylococcus aureus ST1065.
The test system of assay [4] is Saccharomyces cerevisiae.
The subject of assay [5] is Pseudomonas aeruginosa ATCC 27853.
In assay [6] the test system is Staphylococcus aureus ATCC BAA-44.
For assay [7], the system named is Acinetobacter baumannii ATCC 19606.
The subject of assay [8] is Escherichia coli ATCC 25922.
In assay [9] the test system is Streptococcus pyogenes ATCC 19615.
Assay [10] deals with Enterococcus faecalis ATCC 29212.
The subject of assay [11] is Candida parapsilosis ATCC 22019.
Assay [12] relates to Staphylococcus aureus ATCC 25923.
The subject of assay [13] is Klebsiella pneumoniae ATCC 13883.
For assay [14], the system named is Bacillus subtilis DELTA.
Assay [15] deals with Candida parapsilosis.
For assay [16], the system named is Escherichia coli DH5alpha.
In assay [17] the test system is Zymomonas mobilis ATCC 10988.
Assay [18] relates to Streptococcus sanguinis ATCC 10556.
The subject of assay [19] is Streptococcus mutans UA159.
For assay [20], the system named is Streptococcus sobrinus ATCC 6715.
The test system of assay [21] is Escherichia coli C600.
The subject of assay [22] is Pseudomonas aeruginosa PAO1.
The test system of assay [23] is Staphylococcus aureus 209P.
Assay [24] deals with Staphylococcus epidermidis CGMCC 1.4260.
In assay [25] the test system is Pseudomonas aeruginosa CGMCC 1.2421.
For assay [26], the system named is Bacillus subtilis CGMCC 1.3376.
Assay [27] has as its system Klebsiella pneumoniae CGMCC 1.1736.
Assay [28] deals with Escherichia coli CGMCC 1.8732.
Assay [29] has as its system Staphylococcus aureus CGMCC 1.8721.

Converted amounts (≈) assume the structure as drawn.

Take `CC[C@H](C)[C@H](NC(=O)[C@H](Cc1cnc[nH]1)NC(=O)[C@@H]1CCCN1C(=O)[C@@H](NC(=O)[C@H](CCSC)NC(=O)[C@H](CO)NC(=O)[C@H](CC(C)C)NC(=O)[C@@H](N)Cc1ccccc1)[C@@H](C)CC)C(=O)N[C@H](C(=O)N[C@@H](CO)C(=O)NCC(=O)N[C@H](C(=O)N[C@@H](C)C(=O)N[C@@H](C)C(=O)N[C@@H](CC(C)C)C(=O)N[C@@H](C)C(=O)N[C@@H](CCCCN)C(=O)N[C@@H](Cc1cnc[nH]1)C(=O)N[C@@H](CC(C)C)C(N)=O)C(C)C)C(C)C` [FLSMIPHIVSGVAALAKHL]: the MIC in [1] was 25 µM (≈ 50.1 µg/mL); in assay [2] it was 6.25 µM (≈ 12.5 µg/mL); in assay [3], 6.25 µM (≈ 12.5 µg/mL); in [4], 12.5 µM (≈ 25 µg/mL); in assay [5], 100 µM (≈ 200 µg/mL); in assay [6], 6.25 µM (≈ 12.5 µg/mL). The MIC in [7] was 6.25 µM (≈ 12.5 µg/mL); in [8], 25 µM (≈ 50.1 µg/mL); in assay [9] it was 3.12 µM (≈ 6.25 µg/mL); in assay [10] it was 50 µM (≈ 100 µg/mL); in assay [11], not below 50 µM; in assay [12], 6.25 µM (≈ 12.5 µg/mL). The compound also displayed a minimal inhibitory concentration (MIC) in assay [13] of 25 µM (≈ 50.1 µg/mL).
For `CC[C@H](C)[C@H](NC(=O)[C@H](Cc1ccccc1)NC(=O)[C@H](CCCCN)NC(=O)[C@H](CC(C)C)NC(=O)[C@H](CC(C)C)NC(=O)[C@@H](N)CCCN=C(N)N)C(=O)N[C@@H](CCCCN)C(=O)N[C@@H](CCCCN)C(=O)N[C@@H](CC(C)C)C(=O)N[C@@H](CC(C)C)C(N)=O` [RLLKFIKKLL], the MIC in assay [14] is 31.5 µM (≈ 40 µg/mL); in assay [15] it was 23.6 µM (≈ 30 µg/mL); in assay [16] it was not below 315 µM; in assay [17], 7.86 µM (≈ 9.99 µg/mL).
Regarding `CC(C)[C@H](NC(=O)[C@H](CCCCN)NC(=O)[C@H](CCCCN)NC(=O)[C@H](Cc1c[nH]c2ccccc12)NC(=O)[C@H](CCCCN)NC(=O)[C@H](CCCCN)NC(=O)[C@H](Cc1ccccc1)NC(=O)[C@H](Cc1ccccc1)NC(=O)[C@H](CCCCN)NC(=O)[C@H](CCCCN)NC(=O)[C@H](Cc1c[nH]c2ccccc12)NC(=O)CN)C(=O)N[C@@H](Cc1c[nH]c2ccccc12)C(=O)N[C@@H](CCCCN)C(=O)O` [GWKKFFKKWKKVWK], the MIC in assay [18] came to 16.6 µM (≈ 32 µg/mL); in assay [19], 8.31 µM (≈ 16 µg/mL); in assay [20], 8.31 µM (≈ 16 µg/mL).
With `CC[C@H](C)[C@@H]1NC(=O)CNC(=O)[C@H](CCCN=C(N)N)NC(=O)[C@H](Cc2ccc(O)cc2)NC(=O)[C@@H]2CSSC[C@H](NC1=O)C(=O)N[C@@H](Cc1ccc(O)cc1)C(=O)N[C@@H](CCCN=C(N)N)C(=O)N[C@@H](CCCN=C(N)N)C(=O)N[C@H](C(=O)N[C@@H](CCCN=C(N)N)C(=O)O)CSSC[C@H](NC(=O)[C@H](Cc1c[nH]c3ccccc13)NC(=O)[C@@H](N)CCCCN)C(=O)N[C@@H](Cc1ccccc1)C(=O)N[C@@H](CCCN=C(N)N)C(=O)N[C@@H](CCCN=C(N)N)C(=O)N2` [KWCFRRCYRGICYRRCR], the results for the MIC in [21], in assay [22] and in assay [23] were 1.56 µM (≈ 3.62 µg/mL), more than 50 µM and not below 50 µM, respectively.
Consider `CC[C@H](C)[C@H](NC(=O)[C@H](CO)NC(=O)CNC(=O)[C@@H](NC(=O)[C@@H](N)CCCN=C(N)N)[C@@H](C)CC)C(=O)N[C@@H](CC(C)C)C(=O)NCC(=O)N[C@@H](C)C(=O)N[C@@H](CC(C)C)C(=O)N[C@@H](C)C(=O)N[C@@H](CCCCN)C(=O)NCC(=O)N[C@@H](CC(C)C)C(=O)N1CCC[C@H]1C(=O)N[C@H](C(=O)N[C@@H](CC(C)C)C(=O)N[C@@H](CCCCN)C(=O)N[C@@H](CO)C(=O)N[C@@H](Cc1c[nH]c2ccccc12)C(=O)N[C@H](C(=O)N[C@@H](CCCCN)C(=O)N[C@@H](CC(N)=O)C(=O)N[C@@H](CCCN=C(N)N)C(N)=O)[C@@H](C)CC)[C@@H](C)O` [RIGSILGALAKGLPTLKSWIKNR], for which the MIC was 6.25 µM (≈ 15.6 µg/mL) in [24]; 12.5 µM (≈ 31.2 µg/mL) in [25]; 6.25 µM (≈ 15.6 µg/mL) in assay [26]; 25 µM (≈ 62.3 µg/mL) in [27]; 25 µM (≈ 62.3 µg/mL) in [28]; not below 100 µM in assay [29].
For the compound `CC(C)[C@H](NC(=O)[C@H](CCCN=C(N)N)NC(=O)[C@H](CCCCN)NC(=O)CNC(=O)[C@@H](NC(=O)[C@H](CCCN=C(N)N)NC(=O)[C@H](Cc1c[nH]c2ccccc12)NC(=O)[C@H](Cc1c[nH]c2ccccc12)NC(=O)[C@H](CCCCN)NC(=O)[C@H](CCCCN)NC(=O)[C@H](Cc1ccccc1)NC(=O)[C@H](Cc1ccccc1)NC(=O)[C@H](CCCN=C(N)N)NC(=O)CNC(=O)[C@H](Cc1c[nH]c2ccccc12)NC(=O)CN)C(C)C)C(=O)NCC(=O)N[C@@H](CCCCN)C(=O)O` [GWGRFFKKWWRVGKRVGK], the MIC in assay [18], in assay [19] and in [20] was 7.02 µM (≈ 16 µg/mL) each time.
Turning to `CC[C@H](C)[C@H](NC(=O)[C@H](CCCCN)NC(=O)[C@H](CCCCN)NC(=O)[C@H](CC(C)C)NC(=O)[C@H](CC(C)C)NC(=O)CN)C(=O)N[C@@H](CCCCN)C(=O)N[C@@H](CCCN=C(N)N)C(=O)N[C@@H](CC(C)C)C(=O)N[C@@H](CC(C)C)C(N)=O` [GLLKKIKRLL], the MIC was 5.92 µM (≈ 6.99 µg/mL) in [22]; not below 169 µM in [14]; 25.4 µM (≈ 30 µg/mL) in assay [15]; not below 169 µM in assay [16]; not below 33.9 µM in assay [17].
As for `CC[C@H](C)[C@H](NC(=O)[C@H](C)N)C(=O)NCC(=O)N[C@@H](CO)C(=O)N[C@H](C(=O)N[C@@H](CC(C)C)C(=O)NCC(=O)N[C@@H](CCCN=C(N)N)C(=O)N[C@@H](CC(C)C)C(=O)N[C@@H](C)C(=O)N[C@@H](CCCCN)C(=O)NCC(=O)N[C@@H](CC(C)C)C(=O)N1CCC[C@H]1C(=O)N[C@H](C(=O)N[C@@H](CC(C)C)C(=O)N[C@H](C(=O)N[C@@H](CO)C(=O)N[C@@H](Cc1c[nH]c2ccccc12)C(=O)N[C@H](C(=O)N[C@@H](CCCCN)C(=O)N[C@@H](CC(N)=O)C(=O)N[C@@H](CCCN=C(N)N)C(N)=O)[C@@H](C)CC)[C@@H](C)CC)[C@@H](C)O)[C@@H](C)CC` [AIGSILGRLAKGLPTLISWIKNR], the minimum inhibitory concentration (MIC) stood at 3.13 µM (≈ 7.75 µg/mL) in assay [24]; 12.5 µM (≈ 31 µg/mL) in assay [25]; 3.13 µM (≈ 7.75 µg/mL) in [26]; 12.5 µM (≈ 31 µg/mL) in [27]; 12.5 µM (≈ 31 µg/mL) in [28]; 3.13 µM (≈ 7.75 µg/mL) in assay [29].

What is called MIC is the lowest concentration that inhibits growth of the organism. A low value points to greater potency.
